Read-outs that look alike come from different tables or passages of the source.
Columns and labels:
soybean lipoxygenase = molecular target: T1, soybean lipoxygenase (Glycine max, UniProt P08170); experiment: Inhibition of soybean lipoxygenase; assay type: biochemical; settings: for inhibition at 100 µM: read-out: LOX % Inhibition 100 μM; for IC50: cells of the mixed column with μM, read-out: LOX IC50
T1 construct: purchased Sigma Aldrich- Merck KGaA, Darmstadt, Germany
T1 sequence (P08170 1-839): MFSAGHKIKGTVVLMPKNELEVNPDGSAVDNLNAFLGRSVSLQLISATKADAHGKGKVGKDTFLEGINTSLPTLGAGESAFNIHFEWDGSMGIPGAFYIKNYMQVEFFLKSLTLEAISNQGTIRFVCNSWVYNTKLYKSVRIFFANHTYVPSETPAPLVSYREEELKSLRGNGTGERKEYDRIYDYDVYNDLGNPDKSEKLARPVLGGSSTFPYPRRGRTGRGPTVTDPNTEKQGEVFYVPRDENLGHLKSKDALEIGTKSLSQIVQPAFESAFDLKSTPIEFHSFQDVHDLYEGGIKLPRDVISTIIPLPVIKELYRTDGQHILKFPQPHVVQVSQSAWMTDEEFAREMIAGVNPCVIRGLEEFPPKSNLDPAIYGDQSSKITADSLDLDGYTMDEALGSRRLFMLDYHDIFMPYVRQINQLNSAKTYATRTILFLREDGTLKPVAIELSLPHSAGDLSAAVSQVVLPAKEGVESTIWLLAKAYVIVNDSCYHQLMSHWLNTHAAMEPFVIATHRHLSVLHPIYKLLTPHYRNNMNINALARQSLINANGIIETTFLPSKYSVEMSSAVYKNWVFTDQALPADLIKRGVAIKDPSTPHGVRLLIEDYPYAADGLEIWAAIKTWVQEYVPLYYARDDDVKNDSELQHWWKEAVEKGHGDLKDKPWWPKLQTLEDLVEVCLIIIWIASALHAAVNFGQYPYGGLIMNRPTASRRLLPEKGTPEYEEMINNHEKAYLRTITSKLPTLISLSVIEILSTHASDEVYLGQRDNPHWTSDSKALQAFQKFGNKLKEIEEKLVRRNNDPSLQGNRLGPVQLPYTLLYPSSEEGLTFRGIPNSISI
Excerpt: Lipoxygenase (LOX) is the key enzyme in the biosynthesis of inflammatory mediators; thus, it is considered a target for inflammatory diseases. Soybean LOX is a plant enzyme that has been used widely as a prototype for studying the functional and structural properties of the homologous family of lipoxygenases, presenting satisfactory homology with the human 5-LOX [42]. Linoleic acid is the most common substrate in plant LOX. […] Lipophilicity is considered one of the most important parameters with regard to LOX inhibitors according to the literature.
In vitro study was performed as reported previously by our group. In this experiment, 10 μL of the tested compound (from the stock solution) were incubated with 100 μL sodium linoleate (diluted in Tris buffer), 200 μL LOX solution (1:9 × 10^−4 w/v in saline) and 690 μL Tris buffer (pH 9.0) at room temperature. The absorbance was measured at 234 nm, where the change of absorbance was recorded due to the formation of 13-hydroperoxy-linoleic acid. […] In order to determine the IC50 values, different concentrations were used.

[1] = Experimental determination of lipophilicity as RM values (RP-TLC); assay type: physicochemical; settings: methanol/water 70/30 v/v, 24 °C, SD < 10%
Excerpt: Lipophilicity is an important physicochemical parameter of a drug candidate, linking solubility and membrane permeability with the ADMET (absorption, distribution, metabolism, elimination and toxicity) properties and the overall suitability of a molecule. Reversed-phase thin-layer chromatography was the method used to experimentally determine the lipophilic character of the synthesized compounds as RM values (Table 2). Lipophilicity was also theoretically calculated as clog P values using the Bio-Loom program of BioByte Corp (http://www.biobyte.com/, (accessed on 1 March 2023)). An attempt was made to correlate the experimental RM values with the theoretically calculated clog P values (Table 2). […] This disagreement could be attributed to several factors, e.g., different solvation, silanophilic interactions and hydrogen bonding.
Lipophilicity as RM values was determined through reversed-phase TLC (RP-TLC) on silica gel plates impregnated with 5% v/v liquid paraffin in light petroleum ether. Methanol/water mixture (70/30, v/v) was used as mobile phase. Closed chromatography tanks saturated with the mobile phase at 24 °C were used for the development of the plates while the spots were detected under UV light. For the determination of RM values, five individual measurements of Rf values were recorded, and the RM values were derived from the following Equation (1). (1) RM=log1/Rf−1

[2] = Inhibition of AAPH induced linoleic acid peroxidation
Description: For the lipid peroxidation study, 2,2′-Azobis(2-methylpropionamidine) dihydrochloride (AAPH) was used as the generator of peroxy radicals and sodium linoleate as the substrate that undergoes peroxidation. The conversion of linoleic acid to 13-hydroperoxy-linoleic acid was recorded at 234 nm. The change of absorbance reflects the possible antioxidant activity of the tested compounds, in comparison with the reference compound, Trolox.
In vitro study was performed as reported previously by our group. AAPH was used as a free radical generator of alkyl peroxyl radicals. For this experimental procedure, 10 μL of the tested compound (from the stock solution), 10 μL sodium linoleate (16 mM), 50 μL AAPH (40 mM) and 930 μL phosphate-buffered solution (pH 7.4) were added in a UV cuvette (1 mL), pre thermostated at 37 °C. The ability of the compounds to prevent the oxidation of linoleic acid from alkyl peroxyl radicals was evaluated by recording the change of absorbance at 234 nm, due to the conversion of linoleic acid to 13-hydroperoxy-linoleic acid. Trolox was used as the reference.

A549 cell line = experiment: MTT cytotoxicity assay, A549; assay type: cell-based, human; settings: 24 h; for cytotoxicity at 10 µM / cytotoxicity at 50 µM / cytotoxicity at 100 µM: Homo sapiens; for cytotoxicity at 10 µM: read-out: % Cell Toxicity 10 μΜ; for cytotoxicity at 50 µM: read-out: % Cell Toxicity 50 μΜ; for cytotoxicity at 100 µM: A549, 100 μΜ, read-out: % Cell Toxicity 100 μΜ
Description: The compounds of this study were also tested for their cytotoxic effects against the adenocarcinomic human alveolar basal epithelial cell line (A549) at different concentrations (100 μM, 75 μΜ, 50 μM and 10 μM).
Τhe MTT assay was used to evaluate cell viability or cell toxicity, depending on the cell line being tested. The experimental procedure was performed in a 96-well plate, where the cells were seeded and incubated (37 °C, 5% CO2) for 24 h to grow and cover the surface of the wells. Τhe seeding concentrations for the HaCaT and A549 cells were 30 × 10^4 cells/mL and 20 × 10^4 cells/mL, respectively. After the first incubation, the solutions of the compounds (with different concentrations) were added to the adherent cells and incubated for another 24 h. The compounds were tested in triplicate against the control (only cells in medium), the blank (only medium) and the positive/negative control (cells in 100 μM silibinin solution) triplicates. Silibinin, a flavonoid with known anticancer activities, was used as a negative control for the cell viability assay and as positive control for the cytotoxicity testing assay. The light-sensitive MTT-standard solution was prepared by dissolving 1 mg/mL MTT in PBS and then filtrated (in a […] filter (Millipore, Carrigtwohill, Ireland)). On the third day, an appropriate amount of ΜΤΤ solution was added to each well and the plate was incubated for 4 h. During the incubation time, the formazan crystals were formed, which were then dissolved with 100 μL DMSO per well. Finally, the plate was stirred for 30 min, and the optical density (OD) was measured in a plate reader spectrophotometer at 450 nm.

[3] = 100 μM, cells of the mixed column without μM

SMILES | inhibition at 100 µM (soybean lipoxygenase; [3]) [%] | RM [1] | IC50 (soybean lipoxygenase) [µM] | LOX % Inhibition 100 μM (soybean lipoxygenase; [3]) | AAPH % Inhibition 100 μM [2] | cytotoxicity at 10 µM (A549 cell line; A549, 10 μΜ) [%] | cytotoxicity at 50 µM (A549 cell line; A549, 50 μΜ) [%] | cytotoxicity at 100 µM (A549 cell line) [%] | % Cell Toxicity 10 μΜ (A549 cell line; A549, 10 μΜ) | % Cell Toxicity 50 μΜ (A549 cell line; A549, 50 μΜ) | AAPH % Inhibition 100 μM ([2]; 100 µM)
O=C(/C=C/c1ccccc1)c1ccccc1 [Compound 1a, (E)-1,3-diphenylprop-2-en-1-one] | 26 | −0.57 |  |  | 6% | 41.8 | 81.6 | 100 |  |  | 
O=C(/C=C/c1ccccc1)c1ccc(Cl)cc1 [Compound 1b, (E)-1-(4-chlorophenyl)-3-phenylprop-2-en-1-one] | 39 | −0.50 |  |  | 51% | 49.2 | 88.1 | 100 |  |  | 
O=C(/C=C/c1cccs1)c1ccc(Cl)cc1 [Compound 1d, (E)-1-(4-chlorophenyl)-3-(thiophen-2-yl)prop-2-en-1-one] |  | −0.46 | 72.5 |  | 8% | 47.4 | 83.2 | 100 |  |  | 
O=C(/C=C/c1ccc(Cl)cc1)c1ccccc1 [Compound 1e, (E)-3-(4-chlorophenyl)-1-phenylprop-2-en-1-one] |  | −0.50 | 55.5 |  | 4% |  | 6.8 | 36.8 |  |  | 
O=C(/C=C/c1ccc(Cl)cc1)c1ccc(Cl)cc1 [Compound 1f, (E)-1,3-bis(4-chlorophenyl)prop-2-en-1-one] | 4 | −0.24 |  |  | 51% | 48.9 | 67.6 | 100 |  |  | 
O=C(/C=C/c1ccc(Cl)cc1Cl)c1ccccc1 [Compound 1g, (E)-3-(2,4-dichlorophenyl)-1-phenylprop-2-en-1-one] |  | −0.21 | 17 |  | 39% |  |  | 10.8 | no | no | 
O=C(/C=C/c1ccc(Cl)cc1Cl)c1ccc(Cl)cc1 [Compound 1h, (E)-1-(4-chlorophenyl)-3-(2,4-dichlorophenyl)prop-2-en-1-one] |  | −0.05 |  | no | 2% | 49.1 | 81.1 | 100 |  |  | 
O=c1[nH]c(=S)[nH]c2nc(-c3ccccc3)cc(-c3ccccc3)c12 [Compound 2a, 5,7-diphenyl-2-thioxo-2,3-dihydropyrido [2,3-d]pyrimidin-4(1H)-one] |  | −0.95 | 42 |  | 52% | 56.4 | 75 | 80.9 |  |  | 
O=c1[nH]c(=S)[nH]c2nc(-c3ccccc3)cc(-c3cccs3)c12 [Compound 2c, 7-phenyl-5-(thiophen-2-yl)-2-thioxo-2,3-dihydropyrido [2,3-d]pyrimidin-4(1H)-one] |  | −0.83 | 68.5 |  | 52% | 49.4 | 63.6 | 100 |  |  | 
O=c1[nH]c(=S)[nH]c2nc(-c3ccccc3)cc(-c3ccc(Cl)cc3Cl)c12 [Compound 2g, 5-(2,4-dichlorophenyl)-7-phenyl-2-thioxo-2,3-dihydropyrido [2,3-d]pyrimidin-4(1H)-one] |  | −0.60 | 54 |  | 95% |  | 79.1 | 79.4 |  |  | 

Second part, led by results:

inhibition at 100 µM (soybean lipoxygenase; [3]) [%] | RM [1] | IC50 (soybean lipoxygenase) [µM] | LOX % Inhibition 100 μM (soybean lipoxygenase; [3]) | SMILES | AAPH % Inhibition 100 μM [2] | cytotoxicity at 10 µM (A549 cell line; A549, 10 μΜ) [%] | cytotoxicity at 50 µM (A549 cell line; A549, 50 μΜ) [%] | cytotoxicity at 100 µM (A549 cell line) [%] | % Cell Toxicity 10 μΜ (A549 cell line; A549, 10 μΜ) | % Cell Toxicity 50 μΜ (A549 cell line; A549, 50 μΜ) | AAPH % Inhibition 100 μM ([2]; 100 µM)
6 | −0.87 |  |  | O=c1[nH]c(=S)[nH]c2nc(-c3ccc(Cl)cc3)cc(-c3ccccc3)c12 [Compound 2b, 7-(4-chlorophenyl)-5-phenyl-2-thioxo-2,3-dihydropyrido [2,3-d]pyrimidin-4(1H)-one] | 62% | 47.9 | 83.5 | 100 |  |  | 
 | −0.80 | 70 |  | O=c1[nH]c(=S)[nH]c2nc(-c3ccc(Cl)cc3)cc(-c3cccs3)c12 [Compound 2d, 7-(4-chlorophenyl)-5-(thiophen-2-yl)-2-thioxo-2,3-dihydropyrido [2,3-d]pyrimidin-4(1H)-one] | 62% | 48.6 | 100 | 100 |  |  | 
 | −0.87 | 76 |  | O=c1[nH]c(=S)[nH]c2nc(-c3ccccc3)cc(-c3ccc(Cl)cc3)c12 [Compound 2e, 5-(4-chlorophenyl)-7-phenyl-2-thioxo-2,3-dihydropyrido [2,3-d]pyrimidin-4(1H)-one] | 33% | 48 | 83.9 | 82.1 |  |  | 
 | −0.91 | 47.5 |  | O=c1[nH]c(=S)[nH]c2nc(-c3ccc(Cl)cc3)cc(-c3ccc(Cl)cc3)c12 [Compound 2f, 5,7-bis(4-chlorophenyl)-2-thioxo-2,3-dihydropyrido [2,3-d]pyrimidin-4(1H)-one] | no activity | 48.6 | 88.1 | 100 |  |  | no
